Non-standard residues stand in square brackets, D forms with d. Primed or numbered codes have the meaning given here. No end group written: not given here. PEG12′ = not defined here
What was measured:
[1] = tested on: bleomycin-induced lung fibrosis in male C57BL/6 mice; test: Therapeutic mouse model of idiopathic pulmonary fibrosis (bleomycin); assay type: in vivo; details: peptide 5 mg/kg/day intraperitoneal, nintedanib 60 mg/kg/day PO
Source text: The effect of the peptides on the progression of established lung fibrosis can be assessed by monitoring lung fibrosis, lung weight, inflammatory cells in bronchoalveolar lavage fluid (BALF), soluble collagen in BALF, and body weight change in a therapeutic mouse model of idiopathic pulmonary fibrosis. Lung fibrosis was induced in lungs of male C57BL/6 mice between the ages of 6 to 8 weeks by nasophayngeal administration of bleomycin (1.5 U/kg using bleomycin clinical formulation diluted in PBS). A control group of animals were administered saline by the nasopharyngeal route (no-bleomycin control group). After one week, bleomycin-treated animals were randomized to treatment groups (N=10 per group) by body weight and treated daily with vehicle control, nintedanib positive control (60 mg/kg/day PO) or peptide (5 mg/kg/day by intraperitoneal injection). After 14 days of treatment (Day 21), lungs were removed and weighed. The post-caval lobe was separated and snap frozen. The lungs were flushed with Hanks Buffer and bronchoalveolar lavage fluid (BALF) was harvested from each animal. Total BALF leukocyte were counted. Slides were prepared from the remaining BALF leukocytes, fixed and stained with May Geimsa stain and the differential counts were recorded manually. BALF was evaluated for soluble collagen using a Sircol assay. Lungs were fixed in 10% neutral buffered formalin (NBF) for histopathological analysis. Fibrosis was assessed by histopathological analysis of H&E stained mouse lungs using an Ashcroft scoring system.

[2] = tested on: DSS-induced colitis in female C57BL/6NTac mice; test: DSS-induced colitis mouse model of inflammatory bowel disease; assay type: in vivo; details: 3% DSS 8 days; peptides 10 mg/kg/day intraperitoneal; CsA 80 mg/kg/day oral; AUC over 8 days
Experimental: The effect of the peptides on inflammatory disease can be assessed by monitoring fecal blood, stool consistency, and body weight loss in a DSS-induced colitis mouse model. Colitis was induced in female C57BL/6NTac mice (9-11 weeks old) by continuous ad libitum oral administration of dextran sodium sulfate (DSS) 3% in sterile drinking water for 8 days. Control (No DSS) mice received sterile water instead of DSS solution. Peptides were administered intraperitoneally once daily at 10 mg/kg/day for 8 days in combination with oral DSS. […] Daily assessments included body weight loss score, fecal blood score, stool consistency score, and composite disease activity index (DAI) score, based on the first three parameters combined. Scores recorded on each day over 8 days were used to calculate area under the curve (AUC) values for each endpoint in individual animals.

[3] = tested on: 3T3-L1 Mouse Adipocytes; test: Insulin-dependent effect on free fatty acid levels in cultured mouse adipocytes; assay type: cell-based; details: for Free Fatty Acid Levels, MEAN % ISO, +Insulin: peptide 10 μM + insulin 0.25 nM, percent of isoproterenol (0.1 nM)+insulin (0.25 nM); for Free Fatty Acid Levels, MEAN % ISO, +Insulin / Free Fatty Acid Levels, MEAN % ISO, −Insulin: 3 hours; for Free Fatty Acid Levels, MEAN % ISO, −Insulin: peptide 10 μM alone, percent of isoproterenol (0.1 nM) treated control cells
Experimental: The effect of the peptides on fatty acid metabolism was assessed in the absence and presence of insulin using an assay of free fatty acid levels in cultured cells such as mouse adipocytes. Peptides were initially prepared as 10 mM stock in DMSO and used at a final concentration of 10 μM (0.1% DMSO). […] Insulin (0.25 nM) was used as a partial inhibitor and insulin (10 nM) was used as a potent inhibitor of isoproterenol stimulated fatty acid production. Mouse 3T3-L1 cells purchased from ZenBio (Research Triangle Park, N.C.) were seeded at 3,000 cells per well on 96-well plates in Pre-Adipocyte Medium (Zen-Bio) and grown to confluence at 37° C. in a humidified atmosphere of 5% CO2/95% air. Two days after confluence, cells were placed in Adipocyte Differentiation Medium (Zen-Bio) and cultured for three additional days at 37° C. in a humidified atmosphere of 5% CO2/95% air. The culture medium was then partially replaced with Adipocyte Maintenance Medium (Zen-Bio) and the cells maintained at 37° C. in a humidified atmosphere of 5% CO2/95% air with partial medium replacement every other day. At 12 day of differentiation, 96-well cultures were transferred to Adipocyte Maintenance Medium without insulin and placed at 37° C. in a humidified atmosphere of 5% CO2/95% air for two days. Following this incubation period, the medium was removed from 14 day differentiated cultures and replaced with Assay Buffer (Zen-Bio) containing peptides (10 μM), insulin (0.25 nM or 10 nM), isoproterenol (0.1 nM) as appropriate. […] isoproterenol was added to all wells except untreated controls. Insulin at 0.1 nM and 10 nM was added to control wells. Peptides (10 μM) in the absence or presence of insulin (0.25 nM) were added to test wells. Cells in the presence of compounds were placed at 37° C. in a humidified atmosphere of 5% CO2/95% air for 3 hours. At the end of the final 3 h incubation, conditioned assay buffer was removed from each well and place in a fresh 96-well plate for quantitation of free fatty acid content. Free fatty acid concentrations in the assay buffer samples were determined using a Free Fatty Acid Assay kit (Zen-Bio) according to the manufacturer's instructions using a Cytation 3 plate reader at 540 nm (BioTek, Winooski, VD. Absorbance values were corrected for untreated background and expressed as a percent of isoproterenol (0.1 nM) treated control cells for peptides alone or isoproterenol (0.1 nM)+insulin (0.25 nM) for peptides in presence of insulin (0.25 nM). Treatment with isoproterenol […] alone was used as the free fatty acid level stimulatory control. The relative standard deviation of the isoproterenol control was <10%. […] Free fatty acid levels for insulin (10 nM) treatment were <5% of the isoproterenol control value. Free fatty acid levels for insulin (0.25 nM) treatment were 60-80% of the isoproterenol control value.

[4] = tested on: H4IIE Rat Hepatoma Cells; test: Insulin-dependent effect on glucose production by cultured rat liver cells; assay type: cell-based; details: for Glucose Levels, MEAN % Control, +Insulin: peptide 10 μM + insulin 800 pM, percent of insulin (800 pM); for Glucose Levels, MEAN % Control, +Insulin / Glucose Levels, MEAN % Control, −Insulin: 24 hour; for Glucose Levels, MEAN % Control, −Insulin: peptide 10 μM alone, percent of untreated control cells
Experimental: The effect of the peptides on glucose production was assessed in the absence and presence of insulin using an assay of glucose levels in cultured cells such as rat hepatocytes. Peptides were initially prepared as 10 mM stock in DMSO and used at a final concentration of 10 μM (0.1% DMSO). Insulin (800 pM) was used as a partial inhibitor of glucose production. H4-IIE cells purchased from ATCC (Manassas, Va.) were seeded at 100,000 cells/well in standard medium (DMEM/high glucose+10% FBS+1× Glutamax+antibiotics) on 96-well plates and allowed to adhere overnight at 37° C. in a humidified atmosphere of 5% CO2/95% air. Approximately 24 h after seeding, the medium was removed, cells rinsed with glucose free DMEM, and Glucose Production Medium (glucose free DMEM+2 mM sodium pyruvate+10 mM sodium lactate) was added. The cultures were placed at 37° C. in a humidified atmosphere of 5% CO2/95% air overnight. The next morning, the medium was removed and fresh Glucose Production Medium containing compounds was added. Insulin at 800 pM was added to control wells. Peptides (10 μM) in the absence or presence of insulin (800 pM) were added to test wells. Cells in the presence of compounds were placed at 37° C. in a humidified atmosphere of 5% CO2/95% air overnight. After 24 hour incubation, conditioned medium from each well was transferred to a fresh 96-well plate for quantitation of glucose content. Quantitation of glucose levels was determined using an Amplex Red Glucose Assay kit (Abacm; Cambridge, Mass.) according to the manufacturer's instructions using a Cytation 3 plate reader at 570 nm (BioTek, Winooski, Vt.). Absorbance values were expressed as a percent of untreated control cells (maximum glucose production) for peptide alone samples or insulin (800 pM) for peptides in the presence of insulin (800 pM. Glucose levels for insulin (800 pM) treatment were ˜80-90% of the untreated control values. The results are reported in Table 15.

[5] = tested on: 3T3-L1 Mouse Adipocytes; test: Free fatty acid levels in cultured mouse adipocytes; assay type: cell-based; details: insulin 100 nM, 1 nM isoproterenol
Experimental: The effect of the peptides on fatty acid metabolism can be assessed using an assay of free fatty acid levels in cultured cells such as mouse adipocytes. Peptides were initially prepared as 10 mM stock in DMSO and used at a final concentration of 10 μM (0.1% DMSO). […] Mouse 3T3-L1 cells purchased from ZenBio were seeded at 3,000 cells per well in 96-well plates in Pre-adipocyte Medium (Zen-Bio) and grown to confluence at 37° C. in a humidified atmosphere of 5% CO2/95% air. Two days after confluence, cells were placed in Adipocyte Differentiation Medium (Zen-Bio) and cultured for three additional days at 37° C. in a humidified atmosphere of 5% CO2/95% air. The culture media was then replaced with Adipocyte Maintenance Medium (Zen-Bio) and the cells maintained for an additional 9-12 days at 37° C. in a humidified atmosphere of 5% CO2/95% air with partial medium replacement every other day. Following 12-15 days of differentiation, test peptides were added at a final concentration of 10 μM in 0.1% DMSO and incubated for 20-22 hours in Adipocyte Maintenance Medium at 37° C. in a humidified atmosphere of 5% CO2/95% air. After 20-22 hours, 1 nM isoproterenol was added to all wells except untreated controls and test peptides were replenished. Insulin at 100 nM was added to control wells. Cells were incubated for 3 hours in Assay Buffer (Zen-Bio) at 37° C. in a humidified atmosphere of 5% CO2/95% air. Free fatty acid concentrations in the media were determined using a Free Fatty Acid Assay kit (Zen-Bio) according to the manufacturer's instructions using a Cytation 3 plate reader at 540 nm (BioTek, Winooski, Vt.). Absorbance values were corrected for untreated background and expressed relative to isoproterenol treated cells. Treatment with isoproterenol (1 nM) alone was used as the free fatty acid level stimulatory control. The relative standard deviation of the isoproterenol control was <10%. […] Free fatty acid levels for insulin (100 nM) treatment were <5% of the isoproterenol control value.
The effect of the peptides on fatty acid metabolism was assessed using an assay of free fatty acid levels in cultured cells such as mouse adipocytes. Peptides were initially prepared as 10 mM stock in DMSO and used at a final concentration of 10 μM (0.1% DMSO). […] Mouse 3T3-L1 cells purchased from ZenBio were seeded at 3,000 cells per well in 96-well plates in Pre-adipocyte Medium (Zen-Bio) and grown to confluence at 37° C. in a humidified atmosphere of 5% CO2/95% air. Two days after confluence, cells were placed in Adipocyte Differentiation Medium (Zen-Bio) and cultured for three additional days at 37° C. in a humidified atmosphere of 5% CO2/95% air. The culture media was then replaced with Adipocyte Maintenance Medium (Zen-Bio) and the cells maintained for an additional 9-12 days at 37° C. in a humidified atmosphere of 5% CO2/95% air with partial medium replacement every other day. Following 12-15 days of differentiation, test peptides were added at a final concentration of 10 μM in 0.1% DMSO and incubated for 20-22 hours in Adipocyte Maintenance Medium at 37° C. in a humidified atmosphere of 5% CO2/95% air. After 20-22 hours, 1 nM isoproterenol was added to all wells except untreated controls and test peptides were replenished. Insulin at 100 nM was added to control wells. Cells were incubated for 3 hours in Assay Buffer (Zen-Bio) at 37° C. in a humidified atmosphere of 5% CO2/95% air. Free fatty acid concentrations in the media were determined using a Free Fatty Acid Assay kit (Zen-Bio) according to the manufacturer's instructions using a Cytation 3 plate reader at 540 nm (BioTek, Winooski, Vt.). Absorbance values were corrected for untreated background and expressed relative to isoproterenol treated cells. Treatment with isoproterenol (1 nM) alone was used as the free fatty acid level stimulatory control. The relative standard deviation of the isoproterenol control was <10%. […]

Molecule: COC(=O)c1ccc2c(c1)NC(=O)/C2=C(\Nc1ccc(N(C)C(=O)CN2CCN(C)CC2)cc1)c1ccccc1 [Nintedanib, nintedanib, reference compound]
- Mean (SEM) Leukocyte Count in BALF (Percent of Bleomycin Control) ([1]; Day 21, 14 days of treatment): 62.4 (6.08) Percent
- Mean (SEM) Lung Weight (Percent of Bleomycin Control) ([1]; Day 21, 14 days of treatment): 75.2 (6.04) Percent
- Mean (SEM) Percent Body Weight Change from Baseline ([1]; Day 21, 14 days of treatment): −7.95 (6.09) Percent
- Mean (SEM) Collagen Content in BALF (Percent of Bleomycin Control) ([1]; Sircol assay, Day 21): 44.0 (6.48) Percent
- Mean (SEM) Ashcroft Score (Percent of Bleomycin Control) ([1]; histopathology, Day 21): 78.70 (9.72) Percent

Molecule: RVIRACLGVGLLGDL(dA)GK{PEG12} [SEQ ID NO: 29] (RVIRACLGVGLLGDL[dA]GK(PEG12′))
- Mean (SEM) Body Weight Loss Score AUC [2]: 2.10 (0.76)
- Mean (SEM) Composite Disease Activity Index (DAI) Score AUC [2]: 19.8 (1.99)
- Mean (SEM) Fecal Blood Score AUC [2]: 12.8 (1.04)
- Mean (SEM) Stool Consistency Score AUC [2]: 5.05 (0.78)

Molecule: RVIRACLGVGLLGDL(dA)GK{PEG12} [SEQ ID NO: 30] (RVIRACLGVGLLGDL[dA]GK(PEG12′); not fully specified; printed as RVIRACLGVGLLGDL(dA)GK{PEG12}) [possibly the dimer of this chain]
- Mean (SEM) Body Weight Loss Score AUC [2]: 0.95 (0.69)
- Mean (SEM) Composite Disease Activity Index (DAI) Score AUC [2]: 14.9 (0.86)
- Mean (SEM) Fecal Blood Score AUC [2]: 9.30 (0.44)
- Mean (SEM) Stool Consistency Score AUC [2]: 4.65 (0.48)

Molecule: RVIRMCLNNGLNGEL(dA)G (RVIRMCLNNGLNGEL[dA]G) [SEQ ID NO: 22]
- Free Fatty Acid Levels, MEAN % ISO, +Insulin [3]: 25.3%
- Free Fatty Acid Levels, MEAN % ISO, −Insulin [3]: 93.6%
- Glucose Levels, MEAN % Control, +Insulin [4]: 0.5%
- Glucose Levels, MEAN % Control, −Insulin [4]: -0.4%

Molecule: RVIRMCLNVGLEGEL(dA) (RVIRMCLNVGLEGEL[dA]) [SEQ ID NO: 19]
- Free Fatty Acid Levels, MEAN % ISO, +Insulin [3]: 24.7%
- Free Fatty Acid Levels, MEAN % ISO, −Insulin [3]: 67.1%
- Glucose Levels, MEAN % Control, +Insulin [4]: 3.7%
- Glucose Levels, MEAN % Control, −Insulin [4]: 12.5%

Molecule: RVIRMCLNVGLNGE [SEQ ID NO: 21]
- Free Fatty Acid Levels, MEAN % ISO, +Insulin [3]: 40.0%
- Free Fatty Acid Levels, MEAN % ISO, −Insulin [3]: 102%
- Glucose Levels, MEAN % Control, +Insulin [4]: 78.2%
- Glucose Levels, MEAN % Control, −Insulin [4]: 102%

Molecule: insulin: highly potent positive control for decreasing free fatty acid levels; partial inhibitor of glucose production
- Free fatty acid levels, % of the isoproterenol control value [5]: < 5%
- Free fatty acid levels, % of the isoproterenol control value ([3]; insulin 0.25 nM): 60-80%
- Free fatty acid levels, % of the isoproterenol control value ([3]; insulin 10 nM): < 5%
- Glucose levels, % of the untreated control values ([4]; insulin 800 pM): 80-90%

Molecule: {PEG12}KRVIRMCLNVGLLGEL(dA)E ([PEG12′]KRVIRMCLNVGLLGEL[dA]E) [SEQ ID NO: 18]
- Free Fatty Acid Levels, MEAN % ISO, +Insulin [3]: 93.6%
- Free Fatty Acid Levels, MEAN % ISO, −Insulin [3]: 107%
- Glucose Levels, MEAN % Control, +Insulin [4]: 95.4%
- Glucose Levels, MEAN % Control, −Insulin [4]: 101%
